The nature of data set [1]: in vitro. The settings on record: human, CC50 Cell growth.
Data set [2] concerns HCV RNA (HCV replicon in Huh 5-2 cells). The data set can be described thus: microbe, parasite or virus in culture. The settings on record: for EC50: Hepatitis C virus, Huh-5-2, 72 h, read-out: EC50 HCV RNA. The format is cell-based, Hepatitis C Virus.
The nature of data set [3]: in vitro. The settings on record: African green monkey.
Data set [4] has as its system SARS-CoV. The data set can be described thus: microbe, parasite or virus in culture. Type of data set: cell-based, Severe Acute Respiratory Syndrome corona virus (SARS-CoV). The settings on record: for EC50: Severe acute respiratory syndrome coronavirus, Vero C1008, 72 h, read-out: EC50 (50% effective concentration required to reduce virus-induced cytopathicity by 50%). A general note: Cytopathic effects are the visible damage that an infection or toxin causes in cultured cells.

In data set [5] the test system is Huh 5-2 cells. The settings on record: human.

Consider 6 compounds from article PMC2852069 (Indian Journal of Pharmaceutical Sciences, 2008).

In brackets after ≈: the same amount, converted by molar mass. Where only a bound is given, the exact number is not on record here.

On to `Cc1cc(C)nc(NS(=O)(=O)c2ccc(/N=C3\C(=O)Nc4ccc(Br)cc43)cc2)n1` [SPIII-5Br], for which the CC50 in data set [1] was 42 µg/mL (≈ 86.4 µM). Besides, in data set [2], the “EC50 HCV RNA” value is 17 µg/mL (≈ 35 µM) and the EC50 was found to be 19 µg/mL (≈ 39.1 µM). For the same compound, the CC50 in data set [3] was over 125 µg/mL. For the same compound, in data set [4], the “Maximum protection (%) (at 125 μg/ml)” value stood at 2% and the EC50 is over 125 µg/mL. The “CC50 Cell growth” value in data set [5] was over 50 µg/mL.
As to `Cc1cc(C)nc(NS(=O)(=O)c2ccc(/N=C3\C(=O)Nc4ccc(Cl)cc43)cc2)n1` [SPIII-5Cl], the figures for the CC50 in data set [1] and in data set [3] were over 50 µg/mL and over 125 µg/mL, respectively. For the same compound, the EC50 was over 50 µg/mL in data set [2] and over 125 µg/mL in data set [4]. Also, the “Maximum protection (%) (at 125 μg/ml)” value in data set [4] is 10%.
Take `Cc1cc(C)nc(NS(=O)(=O)c2ccc(/N=C3\C(=O)Nc4ccc(F)cc43)cc2)n1` [SPIII-5F]: the CC50 in data set [1] is 42 µg/mL (≈ 98.7 µM); in data set [3], over 125 µg/mL. In addition, the EC50 in data set [2] is 6 µg/mL (≈ 14.1 µM); in data set [4], over 125 µg/mL. In addition, the “Maximum protection (%) (at 125 μg/ml)” value in data set [4] stood at 45%. Also, the concentration without toxicity entry in data set [5] was “up to 42 μg/ml”.
For `Cc1cc(C)nc(NS(=O)(=O)c2ccc(/N=C3\C(=O)Nc4ccccc43)cc2)n1` [SPIII-5H, 4-[(1,2-dihydro-2-oxo-3H-indol-3-ylidene)amino]-N(4,6-dimethyl-2-pyrimidiny)benzene sulphonamide], in data set [1], the CC50 turned out to be 42 µg/mL (≈ 103 µM). In data set [2], the “EC50 HCV RNA” value was 19 µg/mL (≈ 46.6 µM) and the EC50 is 17 µg/mL (≈ 41.7 µM). In data set [3], this compound gave a CC50 of over 125 µg/mL. Besides, in data set [4], the “Maximum protection (%) (at 125 μg/ml)” value was determined as 22% and the EC50 is over 125 µg/mL. In addition, the “CC50 Cell growth” value in data set [5] was over 50 µg/mL.
With `Cc1ccc2c(c1)/C(=N/c1ccc(S(=O)(=O)Nc3nc(C)cc(C)n3)cc1)C(=O)N2` [SPIII-5Me], the CC50 in data set [1] was over 50 µg/mL; in data set [3] it was over 125 µg/mL. In addition, the EC50 in data set [2] is over 50 µg/mL; in data set [4] it was over 125 µg/mL. The “Maximum protection (%) (at 125 μg/ml)” value in data set [4] was found to be 12%.
For `CC(=O)N1C(=O)/C(=N\c2ccc(S(=O)(=O)Nc3nc(C)cc(C)n3)cc2)c2ccccc21` [SPIII-NA], the CC50 is over 50 µg/mL in data set [1] and over 125 µg/mL in data set [3]. In addition, the EC50 in data set [2] was over 50 µg/mL; in data set [4], over 125 µg/mL. Moreover, in data set [4], the “Maximum protection (%) (at 125 μg/ml)” value was found to be 12%.
